Assay results as given in US8729048B2, “Methods and materials for assessing responsiveness to PARP inhibitors and platinating agents” (Mayo Foundation for Medical Education and Research, priority 2011, dated 2014).

Columns and labels:
[1] = test system: MMEJ activity in PEO1 cells; assay: Microhomology mediated end-joining assay (MMEJ), PEO1; assay type: cell-based; settings: 72 hours
From the text: FIG. 11. PARP inhibition fails to induce microhomology-mediated end-joining (MMEJ). (A) Schematic of the reporter substrate used to assay for MMEJ activity. Cleavage of pDVG94 with EcoRV and AfeI creates a blunt-ended linearized substrate, with identical 6-bp ends. Direct joining by NHEJ will result in maintenance of both repeats, but MMEJ will excise one repeat, introducing a new BstXI site. PCR across recircularized substrate produces a product of 180 bp, which can be cut into 120 and 60 bp fragments if the BstXI site was created. This figure is adapted from a figure provided elsewhere (Verkaik et al., Eur. J. Immunol., 32:701-709 (2002)). (B) and (C) Agarose gel from a representative MMEJ assay. PEO1 (B, lanes 1-10) and PEO4 (C) cells were treated with increasing concentrations of ABT-888 following transfection with linearized pDVG94. The size of the initial PCR product (180 bp) as well as BstXI cleaved products (120 bp and 60 bp) are indicated. As a positive and negative control, a cell line previously documented to undergo MMEJ (Lou et al., J. Biol. Chem., 279:46359-46362 (2004)), M059J (B, lanes 11 and 12), and a MMEJ-negative line, M059J+DNA-PKcs (B, lanes 13 and 14) were used. Images were captured from one gel and cut to create two panels. […]

[2] = test system: poly(ADP-ribose) polymer (pADPr) in PEO1 cells; assay: Immunoblotting for poly(ADP-ribose) polymer; assay type: cell-based; settings: 72 hours, ABT-888 0-40 μM
Description: FIG. 2. DNA-PK is activated following PARP inhibitor exposure in PEO1 cells. (A) Western blots for poly(ADP-ribose) polymer (pADPr) and phosphorylation of DNA-PK substrates (DNA-PKcs autophosphorylation at Thr^2609 and Histone H2AX at Ser^139) in PEO1 cells following 72 hours exposure to increasing concentrations of ABT-888 (0, 0.625, 1.25, 2.5, 5, 10, 20, and 40 μM). Hsp90, total DNA-PKcs, and Histone H1 are used as loading controls. […] (C) Quantitation of cells positive for phospho-H2AX foci in PEO1 and PEO4 cells, following treatment with DMSO, 500 nM DNA-PKi, 20 μM ABT-888 (ABT), ABT-888 and DNA-PKi, 50 μM Etoposide (Etop), or 5 Gy ionizing radiation (IR). […]
Cells were washed twice with calcium- and magnesium-free Dulbecco's phosphate-buffered saline (PBS) and solubilized in 6 M guanidine hydrochloride containing 250 mM Tris-HCl, pH 8.5 at 20° C., 10 mM EDTA, 1% (v/v) 2-mercaptoethanol, and 1 mM freshly added phenylmethylsulfonyl fluoride. After preparation for electrophoresis as described elsewhere (Kaufmann et al., Blood, 89:2098-2104 (1997)), aliquots containing 50 μg of protein (determined by the bicinchoninic acid method—S10) were separated on SDS-polyacrylamide gels containing 8% (w/v) acrylamide, electrophoretically transferred to nitrocellulose, and probed with immunological reagents as described elsewhere (Kaufmann, Anal. Biochem., 296:283-286 (2001)). […]

C[C@]1(c2nc3c(C(N)=O)cccc3[nH]2)CCCN1 [ABT-888]
induction of MMEJ [1]: not detected
poly(ADP-ribosyl)ation [2]: decreased
